Test results as given in ChEMBL document CHEMBL5465560, “Selectivity Literature for EUbOPEN Chemogenomic Library” (2024).
Each block holds one compound with its values, some of them ahead of it.

Key:
[1] = target: T1, Serine/threonine-protein kinase PLK4 (Homo sapiens) (UniProt O00444); assay: Selectivity interaction (KinomeScan (DiscoverX)) EUB0000607a PLK4; details: at 10 µM
T1 sequence (whole entry): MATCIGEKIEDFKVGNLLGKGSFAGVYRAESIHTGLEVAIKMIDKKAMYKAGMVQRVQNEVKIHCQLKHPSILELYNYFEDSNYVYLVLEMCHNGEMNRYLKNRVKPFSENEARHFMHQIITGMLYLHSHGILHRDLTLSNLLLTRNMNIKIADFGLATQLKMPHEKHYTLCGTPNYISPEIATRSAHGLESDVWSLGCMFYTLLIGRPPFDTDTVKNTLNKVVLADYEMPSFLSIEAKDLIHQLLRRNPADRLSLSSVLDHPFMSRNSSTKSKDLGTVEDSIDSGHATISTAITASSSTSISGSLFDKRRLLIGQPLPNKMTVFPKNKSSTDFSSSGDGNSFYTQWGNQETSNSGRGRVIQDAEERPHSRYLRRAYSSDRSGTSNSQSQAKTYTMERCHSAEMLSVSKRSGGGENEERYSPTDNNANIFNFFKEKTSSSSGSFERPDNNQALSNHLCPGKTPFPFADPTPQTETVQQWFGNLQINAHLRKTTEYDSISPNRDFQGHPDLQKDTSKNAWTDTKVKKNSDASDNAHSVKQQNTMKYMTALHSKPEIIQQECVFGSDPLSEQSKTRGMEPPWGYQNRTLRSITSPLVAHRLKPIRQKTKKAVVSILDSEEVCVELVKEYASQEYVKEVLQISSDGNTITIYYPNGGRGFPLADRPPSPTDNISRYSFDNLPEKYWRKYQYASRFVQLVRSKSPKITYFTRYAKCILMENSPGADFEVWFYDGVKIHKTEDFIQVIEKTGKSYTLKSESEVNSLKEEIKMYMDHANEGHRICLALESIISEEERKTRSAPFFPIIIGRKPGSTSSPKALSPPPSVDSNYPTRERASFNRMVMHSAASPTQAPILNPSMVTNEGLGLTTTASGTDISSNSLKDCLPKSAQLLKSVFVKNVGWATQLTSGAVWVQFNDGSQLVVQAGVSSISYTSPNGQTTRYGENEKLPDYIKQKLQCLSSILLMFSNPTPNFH

Focal adhesion kinase 1 = Focal adhesion kinase 1 (Homo sapiens, UniProt Q05397); assay: Selectivity interaction (ActivX KiNativ screen (ex vivo kinase selectivity in human PBMCs)) EUB0001619a PTK2; type: cell-based; details: PBMC, at 1 µM
Focal adhesion kinase 1, sequence (Q05397 2-1052 limits assumed): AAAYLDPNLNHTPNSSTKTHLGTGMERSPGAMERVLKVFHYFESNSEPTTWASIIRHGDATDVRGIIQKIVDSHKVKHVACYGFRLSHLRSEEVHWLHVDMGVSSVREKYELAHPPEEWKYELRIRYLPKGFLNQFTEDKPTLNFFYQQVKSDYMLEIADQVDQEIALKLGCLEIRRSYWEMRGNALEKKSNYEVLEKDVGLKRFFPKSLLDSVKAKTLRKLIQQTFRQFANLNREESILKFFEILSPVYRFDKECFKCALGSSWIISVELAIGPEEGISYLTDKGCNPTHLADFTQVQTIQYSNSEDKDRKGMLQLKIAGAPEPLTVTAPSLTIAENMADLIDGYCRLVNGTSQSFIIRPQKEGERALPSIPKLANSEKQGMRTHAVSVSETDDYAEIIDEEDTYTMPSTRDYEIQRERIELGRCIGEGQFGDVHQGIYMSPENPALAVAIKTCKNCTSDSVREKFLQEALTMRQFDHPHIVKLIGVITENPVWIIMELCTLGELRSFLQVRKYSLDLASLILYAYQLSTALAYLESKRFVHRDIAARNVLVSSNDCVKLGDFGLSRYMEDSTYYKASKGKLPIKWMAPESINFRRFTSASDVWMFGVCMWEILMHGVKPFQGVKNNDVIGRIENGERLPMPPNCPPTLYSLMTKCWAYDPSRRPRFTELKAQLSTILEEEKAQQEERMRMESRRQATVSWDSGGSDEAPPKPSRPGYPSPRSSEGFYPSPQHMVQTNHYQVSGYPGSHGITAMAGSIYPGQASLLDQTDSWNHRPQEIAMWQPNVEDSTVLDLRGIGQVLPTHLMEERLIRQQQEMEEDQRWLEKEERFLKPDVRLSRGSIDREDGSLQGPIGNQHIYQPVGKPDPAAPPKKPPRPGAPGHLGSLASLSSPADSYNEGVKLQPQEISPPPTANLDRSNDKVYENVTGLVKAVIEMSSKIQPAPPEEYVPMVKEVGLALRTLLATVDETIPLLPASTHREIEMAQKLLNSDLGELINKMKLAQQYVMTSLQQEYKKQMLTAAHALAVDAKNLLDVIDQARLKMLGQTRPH

[2] = target: T2, Megakaryocyte-associated tyrosine-protein kinase (Homo sapiens) (UniProt P42679); assay: Selectivity interaction (KinomeScan (DiscoverX)) EUB0000045b MATK
T2 sequence (whole entry): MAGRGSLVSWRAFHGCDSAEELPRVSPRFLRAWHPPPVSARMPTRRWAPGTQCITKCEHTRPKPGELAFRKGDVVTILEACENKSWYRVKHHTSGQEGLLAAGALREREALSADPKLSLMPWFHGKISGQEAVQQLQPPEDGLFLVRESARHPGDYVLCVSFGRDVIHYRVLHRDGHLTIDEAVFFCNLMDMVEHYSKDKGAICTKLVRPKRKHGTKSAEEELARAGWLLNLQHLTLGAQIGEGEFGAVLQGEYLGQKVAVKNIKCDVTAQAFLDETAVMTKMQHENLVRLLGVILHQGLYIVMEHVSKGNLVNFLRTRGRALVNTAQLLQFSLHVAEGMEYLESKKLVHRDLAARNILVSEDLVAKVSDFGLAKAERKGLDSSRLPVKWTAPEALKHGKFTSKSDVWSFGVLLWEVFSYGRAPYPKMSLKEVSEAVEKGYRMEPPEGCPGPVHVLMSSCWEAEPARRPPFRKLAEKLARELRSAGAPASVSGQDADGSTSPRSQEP

[3] = target: T3, MAP kinase-activated protein kinase 5 (Homo sapiens) (UniProt Q8IW41); assay: Selectivity interaction (KinomeScan (DiscoverX)) EUB0001049a MAPKAPK5; details: at 1 µM
T3 sequence (whole entry): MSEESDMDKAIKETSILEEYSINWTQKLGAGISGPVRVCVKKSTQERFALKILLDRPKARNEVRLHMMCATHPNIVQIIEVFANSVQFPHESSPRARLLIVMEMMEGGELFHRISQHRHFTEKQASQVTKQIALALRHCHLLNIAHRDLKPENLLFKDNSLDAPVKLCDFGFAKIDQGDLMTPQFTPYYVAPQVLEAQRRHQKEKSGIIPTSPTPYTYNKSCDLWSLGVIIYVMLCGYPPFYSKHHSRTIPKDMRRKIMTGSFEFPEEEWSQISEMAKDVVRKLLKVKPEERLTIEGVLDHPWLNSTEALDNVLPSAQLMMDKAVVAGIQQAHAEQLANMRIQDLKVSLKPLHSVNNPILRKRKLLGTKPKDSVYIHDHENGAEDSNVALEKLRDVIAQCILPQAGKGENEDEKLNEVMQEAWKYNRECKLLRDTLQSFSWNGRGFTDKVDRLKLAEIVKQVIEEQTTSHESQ

[4] = target: Neuropeptide Y receptor type 1 (Homo sapiens, UniProt P25929); assay: Selectivity interaction (Neuropeptide Y Y1 receptor binding assay, human recombinant ) EUB0000877a NPY1R
Neuropeptide Y receptor type 1, sequence (P25929 whole entry): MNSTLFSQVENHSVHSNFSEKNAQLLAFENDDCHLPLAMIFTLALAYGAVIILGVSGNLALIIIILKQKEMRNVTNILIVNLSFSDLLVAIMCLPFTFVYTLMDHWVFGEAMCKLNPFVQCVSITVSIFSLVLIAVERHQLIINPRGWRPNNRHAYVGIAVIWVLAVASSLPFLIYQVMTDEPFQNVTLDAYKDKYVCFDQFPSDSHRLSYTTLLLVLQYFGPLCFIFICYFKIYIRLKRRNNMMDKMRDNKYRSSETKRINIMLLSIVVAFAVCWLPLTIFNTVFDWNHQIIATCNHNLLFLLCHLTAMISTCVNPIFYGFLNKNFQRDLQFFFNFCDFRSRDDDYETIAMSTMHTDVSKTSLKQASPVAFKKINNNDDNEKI

Structure (SMILES): CNC(=O)Nc1ccc(-c2nc(N3CC4CCC(C3)O4)c3cnn(C4CCC5(CC4)OCCO5)c3n2)cc1
% of control [1]: 75%

Structure (SMILES): N#Cc1cccc(-c2c[nH]c3ncnc(N4CCOCC4)c23)c1
% of inhibition (Focal adhesion kinase 1): 11%

Structure (SMILES): C=CC(=O)Nc1cc(-n2c(=O)ccc3cnc4ccc(-c5ccc(NS(C)(=O)=O)cc5)cc4c32)ccc1C
% of control ([2]; at 1 µM): 92%
% of control ([2]; at 10 µM): 95%

Structure (SMILES): COc1cc(Nc2nc(C)cc(-c3cnn4nc(OC)ccc34)n2)cc(C(F)(F)F)c1
% of control [3]: 82%

IC50 [4]: > 30 µM
Structure (SMILES): CCC(=O)N1CC[C@H](Nc2ncnc3c2CN(c2cnc(OC)c(C(F)(F)F)c2)CC3)C1 [LENIOLISIB]
